Molecules are shown by their SMILES. Bridge positions count the residues as written; N and C are the ends. Square brackets hold non-standard residues; d marks the D form. Peptide text beside a SMILES is read from it. * marks the point of attachment. ξ: configuration not given here. Ala(1H-tetrazol-5-yl) = N[C@@H](Cc1nnn[nH]1)C(=O)O; Tyr(3,5-I2) = N[C@@H](Cc1cc(I)c(O)c(I)c1)C(=O)O; Phe(4-COOH) = N[C@@H](Cc1ccc(C(=O)O)cc1)C(=O)O; Bip = N[C@@H](Cc1ccc(-c2ccccc2)cc1)C(=O)O; Phe(3-OMe) = COc1cccc(C[C@H](N)C(=O)O)c1; Phe(3-Me) = Cc1cccc(C[C@H](N)C(=O)O)c1; Phe(2-F) = N[C@@H](Cc1ccccc1F)C(=O)O; Bta = N[C@@H](Cc1csc2ccccc12)C(=O)O; Val(3-OH) = CC(C)(O)[C@H](N)C(=O)O; h4Pal = N[C@@H](CCc1ccncc1)C(=O)O; 4Pal = N[C@@H](Cc1ccncc1)C(=O)O; Cha = N[C@@H](CC1CCCCC1)C(=O)O; Cit = NC(=O)NCCC[C@H](N)C(=O)O; Ile(3ξ) = CCC(C)[C@H](N)C(=O)O; NMeD = CN[C@@H](CC(=O)O)C(=O)O; Carboxymethyl = O=C(O)C*; NMeA = CN[C@@H](C)C(=O)O; Orn = NCCC[C@H](N)C(=O)O; Dab = NCC[C@H](N)C(=O)O; Dap = NC[C@H](N)C(=O)O

T1 sequence (Q15116 25-288): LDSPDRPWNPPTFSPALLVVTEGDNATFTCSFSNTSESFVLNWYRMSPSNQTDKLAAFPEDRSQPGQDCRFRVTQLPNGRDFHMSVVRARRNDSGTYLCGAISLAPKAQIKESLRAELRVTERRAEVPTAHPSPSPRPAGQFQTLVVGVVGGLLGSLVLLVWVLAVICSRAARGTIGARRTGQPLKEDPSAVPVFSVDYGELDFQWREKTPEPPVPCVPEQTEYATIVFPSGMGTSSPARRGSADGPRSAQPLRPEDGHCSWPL

The experiment has as its target T1, PE-labeled human PD-L1-Ig binding to Jurkat cell line over-expressing human PD-1 (Jurkat-PD-1) (Homo sapiens, UniProt Q15116).
T1 construct: expressed in transfected cells; host or cells: Jurkat
Description: Jurkat-PD-1 Cell Binding High-Content Screening Assay (CBA): Method 1. Conditions: Jurkat-hPD-1 cells, PE-labeled PD-L1-Ig 20 nM final; read-out: Jurkat HPDL1 PD1 IC50 (uM) (Method 1).
For orientation: IC50 means the concentration at which inhibition is half-maximal. For `CC(C)C[C@@H]1NC(=O)[C@H](C(C)C)NC(=O)[C@H](Cc2ccccc2)NC(=O)[C@H](CC(=O)O)N(C)C(=O)[C@H](CCCNC(=N)N)NC(=O)[C@H](Cc2ccc(-c3ccccc3)cc2)NC(=O)[C@H](C(C)C)NC(=O)[C@H](Cc2c[nH]c3ccccc23)NC(=O)[C@H](CC(=O)O)NC(=O)[C@H](Cc2ccc(O)cc2)NC(=O)[C@H](Cc2ccccc2)NC(=O)CSC[C@@H](C(=O)NCC(N)=O)NC(=O)[C@H](CO)NC(=O)[C@H](C(C)C)NC1=O` [Compound 1008] ({CH2CO}-FYDWV[Bip]R[NMeD]FVLVSCG-NH2; thioether N-14), the IC50 stood at 0.7 µM.

Take `CC(C)C[C@@H]1NC(=O)[C@H](CCN)NC(=O)[C@@H](CC(C)C)NC(=O)[C@H](C)N(C)C(=O)[C@H](Cc2cnc[nH]2)NC(=O)[C@H](Cc2ccc(-c3ccccc3)cc2)NC(=O)[C@H](C(C)C)NC(=O)[C@H](Cc2c[nH]c3ccccc23)NC(=O)[C@H](CC(=O)O)NC(=O)[C@H](Cc2ccccc2F)NC(=O)[C@H](CN)NC(=O)CSC[C@@H](C(=O)N[C@@H](C)C(N)=O)NC(=O)[C@H]([C@@H](C)O)NC(=O)[C@H](C(C)C)NC1=O` [Compound 1425] ({CH2CO}-[Dap][Phe(2-F)]DWV[Bip]H[NMeA][dL][Dab]LVTCA-NH2; thioether N-14): the IC50 is 0.14 µM.

With `CC[C@H](C)[C@@H]1NC(=O)[C@H](Cc2ccc(-c3ccccc3)cc2)NC(=O)[C@H](C(C)C)NC(=O)[C@H](Cc2c[nH]c3ccccc23)NC(=O)[C@H](CC(=O)O)NC(=O)[C@H](Cc2cccc(OC)c2)NC(=O)[C@H](Cc2ccncc2)NC(=O)CSC[C@@H](C(=O)N[C@@H](C)C(N)=O)NC(=O)[C@H]([C@@H](C)O)NC(=O)[C@H](C(C)C)NC(=O)[C@H](CC(C)C)NC(=O)[C@H](CCN)NC(=O)[C@@H](CC(C)C)NC(=O)[C@H](C)N(C)C1=O` [Compound 1406] ({CH2CO}-[4Pal][Phe(3-OMe)]DWV[Bip]I[NMeA][dL][Dab]LVTCA-NH2; thioether N-14), the IC50 is 0.02 µM.

In the case of `CC(C)C[C@@H]1NC(=O)[C@H](CCN)NC(=O)[C@@H](CC(C)C)NC(=O)[C@H](C)N(C)C(=O)[C@H](C(C)C)NC(=O)[C@H](Cc2ccc(-c3ccccc3)cc2)NC(=O)[C@H](C(C)C)NC(=O)[C@H](Cc2c[nH]c3ccccc23)NC(=O)[C@H](CC(=O)O)NC(=O)[C@H](Cc2ccc(OCC(=O)O)cc2)NC(=O)[C@H](Cc2ccncc2)NC(=O)CSC[C@@H](C(=O)N[C@@H](C)C(N)=O)NC(=O)[C@H]([C@@H](C)O)NC(=O)[C@H](C(C)C)NC1=O` [Compound 1565] ({CH2CO}-[4Pal]Y(Carboxymethyl)DWV[Bip]V[NMeA][dL][Dab]LVTCA-NH2; thioether N-14), the IC50 came out at 0.01 µM.

`CCC(C)[C@@H]1NC(=O)[C@H](Cc2ccc(-c3ccccc3)cc2)NC(=O)[C@H](CC(C)C)NC(=O)[C@H](Cc2c[nH]c3ccccc23)NC(=O)[C@H](CC(=O)O)NC(=O)[C@H](Cc2ccc(C(=O)O)cc2)NC(=O)[C@H](Cc2ccc(OCC(=O)O)cc2)NC(=O)CSC[C@@H](C(=O)N[C@@H](CC(N)=O)C(N)=O)NC(=O)[C@H]([C@@H](C)O)NC(=O)[C@H](C(C)C)NC(=O)[C@H](CC2CCCCC2)NC(=O)[C@H](CCN)NC(=O)[C@@H](CC(C)C)NC(=O)[C@H](C)N(C)C1=O` (stereo partly drawn) [Compound 1919] ({CH2CO}-Y(Carboxymethyl)[Phe(4-COOH)]DWL[Bip][Ile(3ξ)][NMeA][dL][Dab][Cha]VTCN-NH2; thioether N-14): the IC50 came to 0.03 µM.

As for `CC(C)C[C@@H]1NC(=O)[C@H](CCCN)NC(=O)[C@@H](CC(C)C)NC(=O)[C@H](C)N(C)C(=O)[C@H](CCCNC(=N)N)NC(=O)[C@H](Cc2ccc(-c3ccccc3)cc2)NC(=O)[C@H](C(C)C)NC(=O)[C@H](Cc2c[nH]c3ccccc23)NC(=O)[C@H](CC(=O)O)NC(=O)[C@H](Cc2ccc(OCC(=O)O)cc2)NC(=O)[C@H](Cc2ccccc2)NC(=O)CSC[C@@H](C(=O)N[C@@H](C)C(N)=O)NC(=O)[C@H]([C@@H](C)O)NC(=O)[C@H](C(C)C)NC1=O` [Compound 1140] ({CH2CO}-FY(Carboxymethyl)DWV[Bip]R[NMeA][dL][Orn]LVTCA-NH2; thioether N-14), the IC50 was found to be 0.03 µM.

For `CC(C)C[C@@H]1NC(=O)[C@H](CCCNC(=N)N)NC(=O)[C@@H](CC(C)C)NC(=O)[C@H](C)N(C)C(=O)[C@H](CCCNC(=N)N)NC(=O)[C@H](Cc2ccc(-c3ccccc3)cc2)NC(=O)[C@H](C(C)C)NC(=O)[C@H](Cc2c[nH]c3ccccc23)NC(=O)[C@H](CC(=O)O)NC(=O)[C@H](CCc2ccncc2)NC(=O)[C@H](Cc2ccccc2)NC(=O)CSC[C@@H](C(=O)N[C@@H](C)C(N)=O)NC(=O)[C@H]([C@@H](C)O)NC(=O)[C@H](C(C)C)NC1=O` [Compound 1084] ({CH2CO}-F[h4Pal]DWV[Bip]R[NMeA][dL]RLVTCA-NH2; thioether N-14), the IC50 turned out to be 0.09 µM.

With `CC(C)C[C@@H]1NC(=O)[C@H](CCCNC(=N)N)NC(=O)[C@H](Cc2csc3ccccc23)NC(=O)[C@H](C)N(C)C(=O)[C@H](CCC(=O)O)NC(=O)[C@H](Cc2ccc(-c3ccccc3)cc2)NC(=O)[C@H](C(C)C)NC(=O)[C@H](Cc2c[nH]c3ccccc23)NC(=O)[C@H](CC(=O)O)NC(=O)[C@H](Cc2ccc(O)cc2)NC(=O)[C@H](Cc2ccccc2)NC(=O)CSC[C@@H](C(=O)N[C@@H](C)C(N)=O)NC(=O)[C@H]([C@@H](C)O)NC(=O)[C@H](C(C)C)NC1=O` [Compound 1133] ({CH2CO}-FYDWV[Bip]E[NMeA][Bta]RLVTCA-NH2; thioether N-14), the concentration for half-maximal inhibition (IC50) is 0.35 µM.

As to `Cc1cccc(C[C@@H]2NC(=O)[C@H](CC(=O)O)NC(=O)[C@H](Cc3ccc(O)cc3)NC(=O)[C@H](Cc3ccccc3)NC(=O)CSC[C@@H](C(=O)N[C@@H](C)C(N)=O)NC(=O)[C@H]([C@@H](C)O)NC(=O)[C@H](C(C)C)NC(=O)[C@H](CC(C)C)NC(=O)[C@H](CCCNC(=N)N)NC(=O)[C@@H](CC(C)C)NC(=O)[C@H](C)N(C)C(=O)[C@H](CCCNC(=N)N)NC(=O)[C@H](Cc3ccc(-c4ccccc4)cc3)NC(=O)[C@H](C(C)C)NC2=O)c1` [Compound 1125] ({CH2CO}-FYD[Phe(3-Me)]V[Bip]R[NMeA][dL]RLVTCA-NH2; thioether N-14), the IC50 was 0.05 µM.

As to `CC(C)C[C@H]1NC(=O)[C@H](C)N(C)C(=O)[C@H](C(C)C)NC(=O)[C@H](Cc2ccc(-c3ccccc3)cc2)NC(=O)[C@H](C(C)C)NC(=O)[C@H](Cc2c[nH]c3ccccc23)NC(=O)[C@H](CC(=O)O)NC(=O)[C@H](Cc2ccc(O)cc2)NC(=O)[C@H](CN)NC(=O)CSC[C@@H](C(=O)N[C@@H](C)C(N)=O)NC(=O)[C@H]([C@@H](C)O)NC(=O)[C@H](C(C)C)NC(=O)[C@H](CC2CCCCC2)NC(=O)[C@H](CCCNC(=N)N)NC1=O` [Compound 1485] ({CH2CO}-[Dap]YDWV[Bip]V[NMeA][dL]R[Cha]VTCA-NH2; thioether N-14), the 50% inhibitory concentration (IC50) amounted to 0.39 µM.

For the compound `CC(C)C[C@@H]1NC(=O)[C@H](CCCNC(=N)N)NC(=O)[C@@H](CC(C)C)NC(=O)[C@H](C)N(C)C(=O)[C@H](CCCNC(=N)N)NC(=O)[C@H](Cc2ccc(-c3ccccc3)cc2)NC(=O)[C@H](C(C)C)NC(=O)[C@H](Cc2c[nH]c3ccccc23)NC(=O)[C@H](CC(=O)O)NC(=O)[C@H](Cc2cc(I)c(O)c(I)c2)NC(=O)[C@H](Cc2ccccc2)NC(=O)CSC[C@@H](C(=O)N[C@@H](C)C(N)=O)NC(=O)[C@H]([C@@H](C)O)NC(=O)[C@H](C(C)C)NC1=O` [Compound 1093] ({CH2CO}-F[Tyr(3,5-I2)]DWV[Bip]R[NMeA][dL]RLVTCA-NH2; thioether N-14), the IC50 turned out to be 0.05 µM.

On to `Cc1cccc(C[C@@H]2NC(=O)[C@H](CC(=O)O)NC(=O)[C@H](Cc3ccc(OCC(=O)O)cc3)NC(=O)[C@H](Cc3ccc(OCC(=O)O)cc3)NC(=O)CSC[C@@H](C(N)=O)NC(=O)[C@H](CC(=O)O)NC(=O)[C@H](C(C)C)NC(=O)[C@H](CC3CCCCC3)NC(=O)[C@H](CCN)NC(=O)[C@@H](CC(C)C)NC(=O)[C@H](C)N(C)C(=O)[C@H](Cc3ccc(OCC(=O)O)cc3)NC(=O)[C@H](Cc3ccc(-c4ccccc4)cc3)NC(=O)[C@H](Cc3ccc(OCC(=O)O)cc3)NC2=O)c1` [Compound 1654] ({CH2CO}-Y(Carboxymethyl)Y(Carboxymethyl)D[Phe(3-Me)]Y(Carboxymethyl)[Bip]Y(Carboxymethyl)[NMeA][dL][Dab][Cha]VDC-NH2; thioether N-14), for which the IC50 was 0.08 µM.

In the case of `Cc1cccc(C[C@@H]2NC(=O)[C@H](CC(=O)O)NC(=O)[C@H](Cc3ccc(OCC(=O)O)cc3)NC(=O)[C@H](Cc3ccncc3)NC(=O)CSC[C@@H](C(=O)N[C@@H](CCN)C(N)=O)NC(=O)[C@H](CO)NC(=O)[C@H](C(C)(C)O)NC(=O)[C@H](CC3CCCCC3)NC(=O)[C@H](CCN)NC(=O)[C@@H](CC(C)C)NC(=O)[C@H](C)N(C)C(=O)[C@H](CCCNC(N)=O)NC(=O)[C@H](Cc3ccc(-c4ccccc4)cc3)NC(=O)[C@H](Cc3ccc(OCC(=O)O)cc3)NC2=O)c1` [Compound 2201] ({CH2CO}-[4Pal]Y(Carboxymethyl)D[Phe(3-Me)]Y(Carboxymethyl)[Bip][Cit][NMeA][dL][Dab][Cha][Val(3-OH)]SC[Dab]-NH2; thioether N-14), the IC50 is 0.01 µM.

For `COc1cccc(C[C@@H]2NC(=O)[C@H](CC(N)=O)NC(=O)CSC[C@@H](C(=O)N[C@@H](C)C(N)=O)NC(=O)[C@H]([C@@H](C)O)NC(=O)[C@H](C(C)C)NC(=O)[C@H](CC(C)C)NC(=O)[C@H](CCN)NC(=O)[C@@H](CC(C)C)NC(=O)[C@H](C)N(C)C(=O)[C@H](CCCNC(N)=O)NC(=O)[C@H](Cc3ccc(-c4ccccc4)cc3)NC(=O)[C@H](C(C)C)NC(=O)[C@H](Cc3c[nH]c4ccccc34)NC(=O)[C@H](CC(=O)O)NC2=O)c1` [Compound 1313] ({CH2CO}-N[Phe(3-OMe)]DWV[Bip][Cit][NMeA][dL][Dab]LVTCA-NH2; thioether N-14), the IC50 turned out to be 0.04 µM.

As for `CC(C)C[C@@H]1NC(=O)[C@H](Cc2c[nH]c3ccccc23)NC(=O)[C@H](Cc2nn[nH]n2)NC(=O)[C@H](Cc2ccc(O)cc2)NC(=O)[C@H](Cc2ccccc2)NC(=O)CSC[C@@H](C(=O)N[C@@H](C)C(N)=O)NC(=O)[C@H](CO)NC(=O)[C@H](C(C)C)NC(=O)[C@H](CC(C)C)NC(=O)[C@H](CC(N)=O)NC(=O)[C@@H](C)NC(=O)[C@H](C)N(C)C(=O)[C@H](C(C)C)NC(=O)[C@H](Cc2ccc(-c3ccccc3)cc2)NC1=O` [Compound 1540] ({CH2CO}-FY[Ala(1H-tetrazol-5-yl)]WL[Bip]V[NMeA][dA]NLVSCA-NH2; thioether N-14), the half-maximal inhibitory concentration (IC50) was found to be 0.03 µM.

These data come from patent US20240409585A1, “MACROCYCLIC IMMUNOMODULATORS” (priority 2021, published 2024).
